Experimental data: patent US10287641B2, “Lactobacillus apinorum and Lactobacillus mellifer from honeybees in medical, food and feed applications” (CONCELLAE AB, priority 2014, dated 2019)

System: clinical isolates of pathogenic wound bacteria and yeast
Assay: Dual culture overlay assays, whole pathogen panel and antibiotic controls
Format: cell-based
Conditions: antibiotic 30 μg; pathogen of each column not given
Description: Used pathogens (Table 2) were cultivated in Nutrient broth (Oxoid) at 37° C. during 24 hours prior to test in the antagonism assays.
Dual Culture Overlay Assay Antimicrobial activity was measured by using dual culture overlay assay. The Lactobacillus apinorum and Lactobacillus mellifer strains (Table 2) were put into a filter disk and placed onto supplemented MRS agar plates followed by overnight incubation at 35° C.

Row | SMILES | diameter of the inhibition zone, antibiotic control
1 | O=C(N[C@H](CO)[C@H](O)c1ccc([N+](=O)[O-])cc1)C(Cl)Cl [Cl, Chloramphenicol] | ^S19 millimetres
2 | CO/N=C(\C(=O)N[C@@H]1C(=O)N2C(C(=O)O)=C(COC(N)=O)CS[C@H]12)c1ccco1 [Cx, Cefuroxime sodium] | 28 millimetres
